Results on nine compounds are retold here after patent US9381195B2, “Derivatives of azaindazole or diazaindazole type for treating pain” (PIERRE FABRE MEDICAMENT, priority 2012, dated 2016).

Usually inhibition stands for the change of the read-out against control, counted positive when it falls. The term IC50 denotes the concentration that inhibits the measured activity by half.

In test [1] the target is T1, TrkB (Homo sapiens, UniProt Q16620).
T1 construct: purchased Millipore or Kinome Scan (DiscoverX)
T1 sequence (Q16620 32-822): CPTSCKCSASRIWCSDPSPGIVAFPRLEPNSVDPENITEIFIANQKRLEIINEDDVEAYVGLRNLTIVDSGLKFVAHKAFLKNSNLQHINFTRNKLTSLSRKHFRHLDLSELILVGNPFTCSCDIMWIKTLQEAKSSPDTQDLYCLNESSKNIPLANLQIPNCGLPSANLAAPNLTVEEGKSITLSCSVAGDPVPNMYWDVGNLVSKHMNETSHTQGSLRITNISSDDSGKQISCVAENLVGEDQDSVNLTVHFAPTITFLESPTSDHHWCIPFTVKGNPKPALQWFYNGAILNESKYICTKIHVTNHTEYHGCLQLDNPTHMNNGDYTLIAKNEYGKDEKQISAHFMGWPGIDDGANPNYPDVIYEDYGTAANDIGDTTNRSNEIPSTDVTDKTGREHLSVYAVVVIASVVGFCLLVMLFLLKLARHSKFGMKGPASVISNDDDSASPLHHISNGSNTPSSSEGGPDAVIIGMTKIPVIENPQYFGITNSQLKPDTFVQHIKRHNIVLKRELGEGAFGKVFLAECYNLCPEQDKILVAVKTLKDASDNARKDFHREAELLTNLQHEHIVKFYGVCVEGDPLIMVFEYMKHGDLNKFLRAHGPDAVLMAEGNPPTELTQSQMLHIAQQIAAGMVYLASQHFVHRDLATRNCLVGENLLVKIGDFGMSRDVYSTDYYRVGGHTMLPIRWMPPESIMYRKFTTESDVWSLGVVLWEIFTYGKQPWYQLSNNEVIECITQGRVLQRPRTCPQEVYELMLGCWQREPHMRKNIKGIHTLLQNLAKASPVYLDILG
Nature of the test: Test for measuring inhibition of TrkB kinase (Millipore or Kinome Scan, manufacturer's protocols). Type of test: biochemical. The following applies: read-out: Enzymatic inhibition at 10 nM (%) TrkB. An excerpt: (§1) Test for Measuring Inhibition of TrkA, TrkB or TrkC Kinase
(§2) These kinases are produced by Millipore or Kinome Scan (DiscoverX) and are screened according to the manufacturer's protocols.

For test [2], the target named is T2, TrkC (Homo sapiens, UniProt Q16288).
T2 construct: purchased Millipore or Kinome Scan (DiscoverX)
T2 sequence (Q16288 32-839): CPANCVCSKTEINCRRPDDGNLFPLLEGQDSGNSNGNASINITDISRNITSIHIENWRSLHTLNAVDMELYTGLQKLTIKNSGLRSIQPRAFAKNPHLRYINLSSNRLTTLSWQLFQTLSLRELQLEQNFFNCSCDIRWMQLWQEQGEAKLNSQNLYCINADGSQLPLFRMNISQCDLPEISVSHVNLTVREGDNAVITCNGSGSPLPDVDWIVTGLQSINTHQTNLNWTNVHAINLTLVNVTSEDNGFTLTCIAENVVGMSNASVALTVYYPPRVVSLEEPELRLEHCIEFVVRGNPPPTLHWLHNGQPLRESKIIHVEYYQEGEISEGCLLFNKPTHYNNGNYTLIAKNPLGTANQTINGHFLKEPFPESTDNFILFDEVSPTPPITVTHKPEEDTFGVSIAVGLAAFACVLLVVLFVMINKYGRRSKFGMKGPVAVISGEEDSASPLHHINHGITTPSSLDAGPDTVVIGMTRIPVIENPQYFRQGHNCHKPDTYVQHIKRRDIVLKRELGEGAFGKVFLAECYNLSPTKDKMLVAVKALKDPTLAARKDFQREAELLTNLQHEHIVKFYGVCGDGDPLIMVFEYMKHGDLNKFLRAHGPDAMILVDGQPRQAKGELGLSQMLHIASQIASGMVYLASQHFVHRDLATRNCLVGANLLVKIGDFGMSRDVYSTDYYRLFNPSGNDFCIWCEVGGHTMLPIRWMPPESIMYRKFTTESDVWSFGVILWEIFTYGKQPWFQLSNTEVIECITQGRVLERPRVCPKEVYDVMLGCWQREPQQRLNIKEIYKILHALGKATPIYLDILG
Description: Test for measuring inhibition of TrkC kinase (Millipore or Kinome Scan, manufacturer's protocols). Type of test: biochemical. As to conditions: read-out: Enzymatic inhibition at 10 nM (%) TrkC.
Text: as §1, §2

In test [3] the target is T3, TrkA (Homo sapiens, UniProt P04629).
T3 construct: purchased Millipore or Kinome Scan (DiscoverX)
T3 sequence (P04629 33-796): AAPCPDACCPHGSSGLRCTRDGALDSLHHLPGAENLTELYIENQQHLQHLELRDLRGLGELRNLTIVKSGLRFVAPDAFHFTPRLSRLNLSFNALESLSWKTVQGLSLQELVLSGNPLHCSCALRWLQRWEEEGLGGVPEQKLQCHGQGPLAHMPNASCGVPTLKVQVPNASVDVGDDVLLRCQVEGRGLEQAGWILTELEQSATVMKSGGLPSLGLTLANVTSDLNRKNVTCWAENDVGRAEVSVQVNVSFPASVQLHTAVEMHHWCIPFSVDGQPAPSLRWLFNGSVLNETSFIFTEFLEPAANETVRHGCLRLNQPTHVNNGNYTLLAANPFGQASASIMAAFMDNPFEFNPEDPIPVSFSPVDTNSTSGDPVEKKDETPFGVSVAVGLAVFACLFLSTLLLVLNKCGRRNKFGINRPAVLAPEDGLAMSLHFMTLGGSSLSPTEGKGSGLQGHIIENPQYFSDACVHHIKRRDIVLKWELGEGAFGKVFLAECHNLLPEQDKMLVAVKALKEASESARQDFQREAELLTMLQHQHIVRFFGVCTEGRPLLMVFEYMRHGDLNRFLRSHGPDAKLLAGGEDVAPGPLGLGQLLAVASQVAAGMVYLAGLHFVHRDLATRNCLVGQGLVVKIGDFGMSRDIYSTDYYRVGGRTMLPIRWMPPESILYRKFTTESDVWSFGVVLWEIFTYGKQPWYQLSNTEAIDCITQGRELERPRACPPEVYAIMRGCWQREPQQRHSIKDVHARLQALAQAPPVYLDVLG
Description: Test for measuring inhibition of TrkA kinase (Millipore or Kinome Scan, manufacturer's protocols). Type of test: biochemical. As to conditions: read-out: Enzymatic inhibition at 10 nM (%) TrkA.
Text: as §1, §2

Test [4] concerns formalin test (paw licking). Description: In vivo analgesic activity in the formalin test. Also on record: species or system rat. As to conditions: rats, second phase of the formalin test, vs. vehicle-treated animals, P<0.05. From the text:
In Vivo Analgesic Activity in the Formalin Test in Rats The method was adapted from Wheeler-Aceto et al. (Pain, 1990, 40:229-38) and Bardin et al. (2003, Pharmacology 67: 182-194). In the second phase of the test, Compound 30 inhibited paw licking by 44% vs. vehicle-treated animals (P<0.05 by ANOVA).

Test [5] relates to NGF-induced hyperalgesia. Description: In vivo analgesic activity against NGF-induced hyperalgesia (hot plate). The following applies: mouse; for inhibition of NGF-induced hyperalgesia (latency time): given 30 min before NGF, hot plate four hours after NGF. The procedure:
In Vivo Analgesic Activity Against NGF-Induced Hyperalgesia Compounds of general formula (I), and particularly compound 30 have been tested in vivo in the mouse receiving an intraplantar injection of NGF. This treatment elicits thermal hyperalgesia (Schuligoi et al., 1998, Neuroscience Letters 252:147-149). Briefly, male mice received a 10 μl subcutaneous injection of NGFβ (1 μg; SIGMA) into the plantar surface of the right hind paw. Following the injection, mice were returned to their cages. Four hours after NGF injection, mice were placed on the centre of the hot plate analgesimeter (BIO-HC2.00, Bioseb, France), and the latency time to the first brisk lift or lick of a hind paw or jumping will be recorded. A maximum cut-off time of 60 sec is used to prevent tissue damage. Results are given as the mean±s.e.m. of the latency time. Test compounds were given 30 min before NGF injection.

The target in test [6] is T4, TrkB (or NTRK2) (Homo sapiens, UniProt Q16620).
T4 construct: using the soluble intracellular segment of theses receptors, containing the kinase activity; purchased Invitrogen
T4 sequence (Q16620 455-822 limits assumed): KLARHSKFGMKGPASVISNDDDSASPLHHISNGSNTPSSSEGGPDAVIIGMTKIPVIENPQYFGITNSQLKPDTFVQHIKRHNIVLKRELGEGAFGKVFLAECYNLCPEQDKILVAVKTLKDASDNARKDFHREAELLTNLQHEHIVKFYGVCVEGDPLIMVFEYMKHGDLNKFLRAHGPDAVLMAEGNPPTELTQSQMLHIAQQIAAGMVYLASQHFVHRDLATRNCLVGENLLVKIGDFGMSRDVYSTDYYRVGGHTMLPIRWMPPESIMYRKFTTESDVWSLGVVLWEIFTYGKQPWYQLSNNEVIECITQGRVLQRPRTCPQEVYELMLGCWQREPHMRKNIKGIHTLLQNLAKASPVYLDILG
Nature of the test: In vitro kinase glo plus-based kinase assay, TrkB. As to conditions: comparative experiments; 40 μM ATP. Type of test: biochemical. The procedure: An in vitro kinase glo plus-based kinase assay (Promega) was developed in a 96 wells assay plate format to assess the inhibiting properties of compounds on tropomyosin related kinases (Trk) receptors, using the soluble intracellular segment of theses receptors, containing the kinase activity (TrkA (or NTRK1; 400 ng/well; […] Invitrogen)). […] Plates were removed from incubator, and 50 μl of kinase-glo plus was added to each well, followed by a 10 minute incubation at room temperature. The luciferase-induced luminescence, which is proportional to the ATP remaining in the well, was measured on a luminometer. Controls on each plates included wells with the kinase alone (maximal ATP consumption, or 0% inhibition), wells without the kinase (maximal ATP signal or 100% inhibition), and wells with 20 μM staurosporine (positive control of inhibition). […] N=42; […]

Test [7] deals with T5, TrkA (or NTRK1) (Homo sapiens, UniProt P04629).
T5 construct: using the soluble intracellular segment of theses receptors, containing the kinase activity; purchased Millipore
T5 sequence (P04629 440-796 limits assumed): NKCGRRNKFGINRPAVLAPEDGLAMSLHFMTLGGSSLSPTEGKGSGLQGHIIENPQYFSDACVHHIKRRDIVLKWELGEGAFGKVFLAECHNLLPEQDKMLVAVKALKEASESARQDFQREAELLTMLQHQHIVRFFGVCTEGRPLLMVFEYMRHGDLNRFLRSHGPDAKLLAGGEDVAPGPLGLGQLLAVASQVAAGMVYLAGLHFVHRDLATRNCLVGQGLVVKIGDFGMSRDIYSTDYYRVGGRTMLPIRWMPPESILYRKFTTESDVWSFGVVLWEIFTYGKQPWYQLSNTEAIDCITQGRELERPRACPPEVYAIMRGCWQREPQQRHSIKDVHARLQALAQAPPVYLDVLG
Nature of the test: In vitro kinase glo plus-based kinase assay, TrkA. Type of test: biochemical. As to conditions: comparative experiments; 30 μM ATP. How it is done: Plates were removed from incubator, and 50 μl of kinase-glo plus was added to each well, followed by a 10 minute incubation at room temperature. The luciferase-induced luminescence, which is proportional to the ATP remaining in the well, was measured on a luminometer. Controls on each plates included wells with the kinase alone (maximal ATP consumption, or 0% inhibition), wells without the kinase (maximal ATP signal or 100% inhibition), and wells with 20 μM staurosporine (positive control of inhibition).
(In general: Kinase-Glo measures the ATP left after a reaction by luminescence.)

For test [8], the system named is inflammatory pain induced by Complete Freund Adjuvant (CFA). Nature of the test: In vivo analgesic activity against acute and chronic inflammatory pain induced by Complete Freund Adjuvant (CFA). As to conditions: rat. From the text: In Vivo Analgesic Activity Against Acute and Chronic Inflammatory Pain Induced by Complete Freund Adjuvant (CFA)
Male Sprague-Dawley rats [Crl:OFA(SD) Charles River Lyon, France] weighing 160-180 g upon arrival were used. Rats were first daily habituated to handling and to the test apparatus used for the von-Frey and hot-plate models one week before the induction of inflammation. On the following Monday, they were subjected to nociceptive tests for determination of basal scores. Then, rats will be given a 100 μl subcutaneous injection of CFA (1 mg/1 ml; Sigma) into the plantar surface of the right hind paw (day 0: D0). Saline was injected by the same route in the placebo group.
Then each rat was placed on an elevated plastic mesh in a clear plastic cage and the number of spontaneous flinches (measurement of spontaneous pain) was recorded during 10 min. Mechanical allodynia was assessed using the von Frey Hair test. Each rat was placed on an elevated plastic mesh in a clear plastic cage and allowed to adapt to the testing environment for at least 5 min. The von Frey Hairs (Semmes-Weinstein monofilaments, Stoelting Ill., USA; 0.6, 1.4, 2, 4, 6, 8, 10, and 15 g) was applied to the plantar surface of the injected paw from below the mesh floor for […] in the ascending order. The threshold was determined as the lowest force that evoked a withdrawal response. The test was repeated three times with an interval of 5 min between each test. The paw withdrawal score to the tactile stimulus was determined as the average of the 3 measurements. Animals received intraperitoneal or oral injections of test compounds. […] Compound completely or nearly completely reversed spontaneous pain from 0.16 mg/kg and mechanical allodynia from 2.5 mg/kg.

Test [9] concerns bone cancer pain. Description: In vivo analgesic activity against chronic pain in a model of bone cancer pain (NCTC 2472 fibrosarcoma cells in tibia). Also on record: species or system mouse. As to conditions: C3H/HeNCrl mice. The procedure: In Vivo Analgesic Activity Against Chronic Pain in a Model of Bone Cancer Pain
Bone cancer produces one of the most painful conditions that affect humans and animals. […] Several models of murine osteosarcoma-induced pain have been developed (Pacharinsak and Beitz, Animal models of cancer pain. Comp Med. 2008 June; 58:220-33.).
We induced bone cancer pain by implanting 10 μl of PBS containing 2×10^5 NCTC 2472 osteolytic fibrosarcoma cells into the tibia of 5-6 week-old C3H/HeNCrl mice under isoflurane anesthesia. The presence of these cells induces osteolytic lesions in bone due to both an increase in the number of osteoclasts and to their activation, which leads to the destruction of bone tissue and the invasion of the adjacent soft tissue and pain related behaviours. Pain-related behaviours were evaluated both prior to and at 3, 7, 10, 14 and 17 days following tumor cell injection. The following behaviors were evaluated: • Limb use during spontaneous ambulation on a scale of 0-4 where 0=normal use and 4=no use of the injected hind paw; • Light touch-evoked pain. Light touch induced flinching were measured after the 1 min period of non noxious stimulation of the tumor injected paw with a small paint brush. The numbers of flinches were recorded over 5 min. […]

Structures are written as SMILES. Some results are limits rather than exact numbers.

With `CN1CCN(c2ccc(C(=O)Nc3n[nH]c4nc(N)c(Sc5cc(F)cc(F)c5)cc34)c(NC3CCOCC3)c2)CC1` [Compound 14-11, N-(6-amino-5-(3,5-difluorophenylthio)-1H-pyrazolo[3,4-b]pyridin-3-yl)-4-(4-methylpiperazin-1-yl)-2-(tetrahydro-2H-pyran-4-ylamino)benzamide], the inhibition at 0.01 µM in test [1] was determined as 88%; in [2], 93.4%; in test [3] it was 97.4%.
Regarding `CN1CCN(c2ccc(C(=O)Nc3n[nH]c4ncc(S(=O)(=O)c5cc(F)cc(F)c5)cc34)c(NC3CCOCC3)c2)CC1` [Compound 27-1, N-(5-(3,5-difluorophenylsulfonyl)-1H-pyrazolo[3,4-b]pyridin-3-yl)-4-(4-methylpiperazin-1-yl)-2-(tetrahydro-2H-pyran-4-ylamino)benzamide], the results for the inhibition at 0.01 µM in test [1], in [2] and in test [3] were 93%, 96.8% and 97.8%, respectively.
With `CN1CCN(c2ccc(C(=O)Nc3n[nH]c4ncc(Cc5cc(F)cc(F)c5)cc34)c(NC3CCOCC3)c2)CC1` [Compound 30-9, N-(5-(3,5-difluorobenzyl)-1H-pyrazolo[3,4-b]pyridin-3-yl)-4-(4-methylpiperazin-1-yl)-2-(tetrahydro-2H-pyran-4-ylamino)benzamide], the inhibition at 0.01 µM worked out at 98% in [1] and 55% in [3].
`CN1CCN(c2ccc(C(=O)Nc3n[nH]c4ncc(S(=O)(=O)Nc5cc(F)cc(F)c5)cc34)c(NC3CCOCC3)c2)CC1` [Compound 30-8, N-(5-(N-(3,5-difluorophenyl)sulfamoyl)-1H-pyrazolo[3,4-b]pyridin-3-yl)-4-(4-methylpiperazin-1-yl)-2-(tetrahydro-2H-pyran-4-ylamino)benzamide]: the inhibition at 0.01 µM in test [1] was determined as 96.6%; in [2], 97.3%; in test [3], 99%.
Consider `CN1CCN(c2ccc(C(=O)Nc3n[nH]c4ncc(Sc5cc(F)cc(F)c5)cc34)c(NC3CCOCC3)c2)CC1` [Compound 30, N-(5-(3,5-difluorophenylthio)-1-H-pyrazolo[3,4-b]pyridine-3-yl)-4-(4-methylpiperazine-1-yl)-2-(tetrahydro-2H-pyran-4-ylamino)benzamide], for which, in [4], the “inhibition of paw licking” value is 44%. Also, the inhibition at 0.01 µM in test [1] worked out at 84%; in test [2] it was 64%; in test [3], 93.8%. In [5] (intraperitoneal or oral route, P<0.05 vs NGF alone), the “doses at which complete or nearly complete reversion of NGF-induced hyperalgesia occurred” value is given as not above 10 mg/kg. Further, the “inhibition of NGF-induced hyperalgesia (latency time)” value is “dose-dependently inhibited” in test [5] (intraperitoneal route, FIG. 1A) and “dose-dependently inhibited” in test [5] (oral route, FIG. 1B). For the same compound, the results for the IC50 in [6] and in test [7] were 0.031 µM and 0.045 µM, respectively. Further, in test [8] (flinches), the “dose from which spontaneous pain was completely or nearly completely reversed” value is recorded as not below 0.16 mg/kg. Further, the “inhibition of spontaneous flinches (acute inflammatory pain)” value in [8] (intraperitoneal injection, FIG. 2A) is recorded as “dose-dependently inhibited”. Moreover, the “inhibition of mechanical allodynia (von Frey)” value in [8] (oral administration, FIG. 2B) is listed as “dose-dependently inhibited”. Moreover, the “dose from which mechanical allodynia was completely or nearly completely reversed” value in test [8] (von Frey) was not below 2.5 mg/kg. The light touch-evoked flinching result in test [9] (2.5 mg/kg i.p. chronically from day 7, effect from day 8, FIG. 3B) is listed as “significantly reduced”. Moreover, the limb use score result in test [9] (2.5 mg/kg i.p. chronically from day 7, effect from day 10, FIG. 3A) was “significantly reduced”.
With `CN1CCN(c2ccc(C(=O)Nc3n[nH]c4nc(Nc5cc(F)cc(F)c5)ncc34)c(NC3CCOCC3)c2)CC1` [A], the IC50 in test [6] is more than 100 µM; in test [7] it was approximately 10 µM.
As to `CN1CCN(c2ccc(C(=O)Nc3n[nH]c4nc(Nc5ccc(F)cc5F)ccc34)c(NC3CCOCC3)c2)CC1` [C], the IC50 in test [6] was 5.8 µM; in [7] it was 2.1 µM.
As for `Nc1n[nH]c2ncc(Sc3cc(F)cc(F)c3)cc12` [D], the IC50 in test [6] is 35 µM; in [7], 22 µM.
`CN1CCN(c2ccc(C(=O)Nc3n[nH]c4nc(Nc5ccc(F)cc5F)ncc34)c(NC3CCOCC3)c2)CC1` [B]: the half-inhibitory concentration (IC50) in test [6] was 18 µM; in test [7], 3.3 µM.
